Each molecule was assayed against skeletal myofibrils (myosin ATPase) (assay: Skeletal Myofibril ATPase Assay). Conditions: Table 4A.
Type: biochemical
How it was run: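 Skeletal myofibril ATPase activity was measured via PK-LDH coupling, following NADH loss at 340 nm every 1.5-2 min for 45 min in PIPES/CaCl2/EGTA pCa buffer, pH 7.0. Max−Min slopes were normalised to 1% DMSO vehicle (100%) and fit to a four-parameter logistic (bottom ≥0) for IC50.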

`CC(C)(C#N)NC(=O)Cn1nc(-c2ccc(OC(F)F)nc2)ccc1=O` [Compound I-35, N-(2-cyanopropan-2-yl)-2-(3-(6-(difluoromethoxy)pyridin-3-yl)-6-oxopyridazin-1(6H)-yl)acetamide] and `CCC(C)(C)NC(=O)Cn1nc(-c2ccc(OC(F)F)nc2)ccc1=O` [Compound I-20, 2-(3-(6-(difluoromethoxy)pyridin-3-yl)-6-oxopyridazin-1(6H)-yl)-N-(tert-pentyl)acetamide] fall in the same range of IC50: 10 to 100 µM for the first, 10 to 100 µM for the second.

`CCNC(=O)Cn1nc(-c2cnc(OCC3CC(F)(F)C3)nc2)ccc1=O` [Compound I-77, 2-(3-(2-((3,3-difluorocyclobutyl)methoxy)pyrimidin-5-yl)-6-oxopyridazin-1(6H)-yl)-N-ethylacetamide] and `CCNC(=O)Cn1nc(-c2ccc(NC3CC(F)(F)C3)nc2)ccc1=O` [Compound I-74, 2-(3-(6-((3,3-difluorocyclobutyl)amino)pyridin-3-yl)-6-oxopyridazin-1(6H)-yl)-N-ethylacetamide] fall in the same range of IC50: 10 to 100 µM for the first, 10 to 100 µM for the second.

First: CCNC(=O)Cn1nc(-c2ccc(N3CC4CC(C3)O4)nc2)ccc1=O [Compound I-43, 2-(3-(6-(6-oxa-3-azabicyclo[3.1.1]heptan-3-yl)pyridin-3-yl)-6-oxopyridazin-1(6H)-yl)-N-ethylacetamide]
Second: CCNC(=O)Cn1nc(-c2ccc(N3CC4(COC4)C3)nc2)ccc1=O [Compound I-31, 2-(3-(6-(2-oxa-6-azaspiro[3.3]heptan-6-yl)pyridin-3-yl)-6-oxopyridazin-1(6H)-yl)-N-ethylacetamide]
The IC50 of the first is lower: 10 to 100 µM for the first, > 100 µM for the second.

First: O=C(Cn1nc(-c2ccc(OC(F)F)nc2)ccc1=O)NCc1cccc(Cl)c1 [Compound I-76, N-(3-chlorobenzyl)-2-(3-(6-(difluoromethoxy)pyridin-3-yl)-6-oxopyridazin-1(6H)-yl)acetamide]
Second: O=C(Cn1nc(-c2ccc(OC(F)F)nc2)ccc1=O)NCc1ccc(Cl)cc1 [Compound I-70, N-(4-chlorobenzyl)-2-(3-(6-(difluoromethoxy)pyridin-3-yl)-6-oxopyridazin-1(6H)-yl)acetamide]
The IC50 of the first is higher: 10 to 100 µM for the first, < 10 µM for the second. The second is the more potent here.

First: CCNC(=O)Cn1nc(-c2ccc(NC)nc2)ccc1=O [Compound I-47, N-ethyl-2-(3-(6-(methylamino)pyridin-3-yl)-6-oxopyridazin-1(6H)-yl)acetamide]
Second: CCNC(=O)Cn1nc(-c2ccc(NC3CCOCC3)nc2)ccc1=O [Compound I-45, N-ethyl-2-(6-oxo-3-(6-((tetrahydro-2H-pyran-4-yl)amino)pyridin-3-yl)pyridazin-1(6H)-yl)acetamide]
The IC50 of the first is lower: < 10 µM for the first, > 100 µM for the second.

Compared with `CCNC(=O)Cn1nc(-c2ccc(N3CCCC3C(F)(F)F)nc2)ccc1=O` (stereo not drawn) [Compound I-48, N-ethyl-2-(6-oxo-3-(6-(2-(trifluoromethyl)pyrrolidin-1-yl)pyridin-3-yl)pyridazin-1(6H)-yl)acetamide], `CCNC(=O)Cn1nc(-c2ccc(N3CC4(C3)CS(=O)(=O)C4)nc2)ccc1=O` [Compound I-32, 2-(3-(6-(2,2-dioxido-2-thia-6-azaspiro[3.3]heptan-6-yl)pyridin-3-yl)-6-oxopyridazin-1(6H)-yl)-N-ethylacetamide] is higher in IC50: < 10 µM for the first, > 100 µM for the second.

Compared with `O=C(Cn1nc(-c2ccc(NC34CC(C3)C4)nc2)ccc1=O)NC12CC(C1)C2` [Compound I-46, N-(bicyclo[1.1.1]pentan-1-yl)-2-(3-(6-(bicyclo[1.1.1]pentan-1-ylamino)pyridin-3-yl)-6-oxopyridazin-1(6H)-yl)acetamide], `O=C(Cn1nc(-c2ccc(OC(F)F)nc2)ccc1=O)NC12CC(C1)C2` [Compound I-11, N-(bicyclo[1.1.1]pentan-1-yl)-2-(3-(6-(difluoromethoxy)pyridin-3-yl)-6-oxopyridazin-1(6H)-yl)acetamide] is higher in IC50: < 10 µM for the first, 10 to 100 µM for the second.

`CCNC(=O)Cn1nc(-c2ccc(OCC3(F)COC3)nc2)ccc1=O` [Compound I-23, N-ethyl-2-(3-(6-((3-fluorooxetan-3-yl)methoxy)pyridin-3-yl)-6-oxopyridazin-1(6H)-yl)acetamide] and `CCNC(=O)Cn1nc(-c2ccc(OCC3COC3)nc2)ccc1=O` [Compound I-22, N-ethyl-2-(3-(6-(oxetan-3-ylmethoxy)pyridin-3-yl)-6-oxopyridazin-1(6H)-yl)acetamide] fall in the same range of IC50: 10 to 100 µM for the first, 10 to 100 µM for the second.

First: CCNC(=O)Cn1nc(-c2ccc(Oc3ccc(F)cc3)nc2)ccc1=O [Compound I-21, N-ethyl-2-(3-(6-(4-fluorophenoxy)pyridin-3-yl)-6-oxopyridazin-1(6H)-yl)acetamide]
Second: CCNC(=O)Cn1nc(-c2ccc(OCCN(C)C)nc2)ccc1=O [Compound I-26, 2-(3-(6-(2-(dimethylamino)ethoxy)pyridin-3-yl)-6-oxopyridazin-1(6H)-yl)-N-ethylacetamide]
The IC50 of the first is lower: 10 to 100 µM for the first, > 100 µM for the second.

In the case of `O=C(Cn1nc(-c2cnc(OCC(F)(F)F)nc2)ccc1=O)NC12CC(C1)C2` [Compound I-51, N-(bicyclo[1.1.1]pentan-1-yl)-2-(6-oxo-3-(2-(2,2,2-trifluoroethoxy)pyrimidin-5-yl)pyridazin-1(6H)-yl)acetamide], the IC50 is reported as < 10 µM.

Same assay, conditions: Table 4B

First: CCNC(=O)Cn1nc(-c2ccc(OC(C)(F)F)cc2)ccc1=O [II-1, 2-(3-(4-(1,1-difluoroethoxy)phenyl)-6-oxopyridazin-1(6H)-yl)-N-ethylacetamide]
Second: CCCNC(=O)Cn1nc(-c2ccc(OC(F)F)cc2)ccc1=O [II-12, 2-(3-(4-(difluoromethoxy)phenyl)-6-oxopyridazin-1(6H)-yl)-N-propylacetamide]
The IC50 of the first is lower: < 10 µM for the first, 10 to 100 µM for the second. The first is the more potent here.

Same assay, conditions: Table 4C

Compared with `COc1ccc(-c2ccc(=O)n(CC(=O)NCc3cccc(F)c3)n2)c(F)c1` [IIIb-55, 2-(3-(2-fluoro-4-methoxyphenyl)-6-oxopyridazin-1(6H)-yl)-N-(3-fluorobenzyl)acetamide], `COc1ccc(-c2ccc(=O)n(CC(=O)NCc3ccccc3Cl)n2)c(F)c1` [IIIa-13, N-(2-chlorobenzyl)-2-(3-(2-fluoro-4-methoxyphenyl)-6-oxopyridazin-1(6H)-yl)acetamide] is lower in IC50: > 100 µM for the first, < 10 µM for the second. The second is the more potent here.

Compared with `COc1ccc(-c2ccc(=O)n(CC(=O)NCc3ccccc3F)n2)cc1` [IIIb-38, N-(2-fluorobenzyl)-2-(3-(4-methoxyphenyl)-6-oxopyridazin-1(6H)-yl)acetamide], `COc1ccc(-c2ccc(=O)n(CC(=O)NCc3ccccc3Cl)n2)cc1` [IIIb-1, N-(2-chlorobenzyl)-2-(3-(4-methoxyphenyl)-6-oxopyridazin-1(6H)-yl)acetamide] is lower in IC50: > 100 µM for the first, < 10 µM for the second. The second is the more potent here.

`COc1ccc(-c2ccc(=O)n(CC(=O)NCc3cccc(C)c3)n2)cc1` [IIIa-10, 2-(3-(4-methoxyphenyl)-6-oxopyridazin-1(6H)-yl)-N-(3-methylbenzyl) acetamide] and `COc1ccc(-c2ccc(=O)n(CC(=O)NCc3ccc(C)cc3)n2)cc1` [IIIa-15, 2-(3-(4-methoxyphenyl)-6-oxopyridazin-1(6H)-yl)-N-(4-methylbenzyl) acetamide] cannot be ordered by IC50: < 10 µM for the first, < 10 µM for the second.

`COc1ccc(-c2ccc(=O)n(CC(=O)NC3CCCC3)n2)cc1` [IIIb-23, N-cyclopentyl-2-(3-(4-methoxyphenyl)-6-oxopyridazin-1(6H)-yl)acetamide] and `CNC(=O)Cn1nc(-c2ccc(OC)cc2)ccc1=O` [IIIa-21, 2-(3-(4-methoxyphenyl)-6-oxopyridazin-1(6H)-yl)-N-methylacetamide] fall in the same range of IC50: 10 to 100 µM for the first, 10 to 100 µM for the second.

Going from `COc1ccc(-c2ccc(=O)n(CC(=O)Nc3ccc4c(c3)OCCO4)n2)c(F)c1` [IIIb-15, N-(2,3-dihydrobenzo[b][1,4]dioxin-6-yl)-2-(3-(2-fluoro-4-methoxyphenyl)-6-oxopyridazin-1(6H)-yl)acetamide] to `CCc1ccc(-c2ccc(=O)n(CC(=O)Nc3ccc4c(c3)OCCO4)n2)cc1` [IIIb-44, N-(2,3-dihydrobenzo[b][1,4]dioxin-6-yl)-2-(3-(4-ethylphenyl)-6-oxopyridazin-1(6H)-yl)acetamide], the IC50 rises from < 10 µM to > 100 µM.

First: CC(C)NC(=O)Cn1nc(-c2ccccc2)ccc1=O [IIIc-63, N-isopropyl-2-(6-oxo-3-phenylpyridazin-1(6H)-yl)acetamide]
Second: COc1ccccc1NC(=O)Cn1nc(-c2ccccc2)ccc1=O [IIIc-58, N-(2-methoxyphenyl)-2-(6-oxo-3-phenylpyridazin-1(6H)-yl)acetamide]
The IC50 of the first is higher: > 100 µM for the first, 10 to 100 µM for the second.

`COc1ccc(-c2ccc(=O)n(CC(=O)NCc3ccc(Cl)cc3)n2)cc1` [IIIa-17, N-(4-chlorobenzyl)-2-(3-(4-methoxyphenyl)-6-oxopyridazin-1(6H)-yl)acetamide] and `COc1ccc(-c2ccc(=O)n(CC(=O)NCc3cc(Cl)ccc3Cl)n2)cc1` cannot be ordered by IC50: < 10 µM for the first, < 10 µM for the second.

Compared with `COc1ccc(-c2ccc(=O)n(CC(=O)NCc3ccc(Cl)cc3)n2)cc1` [IIIb-31, N-(4-chlorobenzyl)-2-(3-(4-methoxyphenyl)-6-oxopyridazin-1(6H)-yl)acetamide], `COc1ccc(-c2ccc(=O)n(CC(=O)Nc3ccc(C(C)C)cc3)n2)cc1` [IIIb-56, N-(4-isopropylphenyl)-2-(3-(4-methoxyphenyl)-6-oxopyridazin-1(6H)-yl)acetamide] is higher in IC50: 10 to 100 µM for the first, > 100 µM for the second. The first is the more potent here.

`COc1ccc(-c2ccc(=O)n(CC(=O)NCCC(C)C)n2)cc1` [IIIb-48, N-isopentyl-2-(3-(4-methoxyphenyl)-6-oxopyridazin-1(6H)-yl)acetamide] and `COc1ccc(-c2ccc(=O)n(CC(=O)NCCC(C)C)n2)c(F)c1` [IIIb-57, 2-(3-(2-fluoro-4-methoxyphenyl)-6-oxopyridazin-1(6H)-yl)-N-isopentylacetamide] cannot be ordered by IC50: > 100 µM for the first, > 100 µM for the second.

`COc1ccc(-c2ccc(=O)n(CC(=O)NC(C)C)n2)c(F)c1` [IIIb-19, 2-(3-(2-fluoro-4-methoxyphenyl)-6-oxopyridazin-1(6H)-yl)-N-isopropylacetamide] and `CC(CCNC(=O)Cn1nc(-c2ccccc2)ccc1=O)c1ccccc1` (stereo not drawn) [IIIc-53, 2-(6-oxo-3-phenylpyridazin-1(6H)-yl)-N-(3-phenylbutyl)acetamide] fall in the same range of IC50: 10 to 100 µM for the first, 10 to 100 µM for the second.

For `O=C(Cn1nc(-c2ccccc2)ccc1=O)Nc1ccc2c(c1)OCCO2` [IIIc-64], the IC50 was > 100 µM.

Source: patent US20230293518A1 (Edgewise Therapeutics, Inc., priority 2020, published 2023)
